pIC50: −log10 of the molar value. Where a name gives a salt, the structure may show the parent alone.
System: PAKT/PKB (p-(S473) AKT) in H209 small cell lung carcinoma cells stimulated with Stem Cell Factor
Assay: PAKT/PKB Cytoblot Assay with H209 cells (SCF-stimulated p-(S473) AKT)
Type: cell-based
Details: Homo sapiens, NCI-H209, compound 1 hour, SCF 25 ng/mL 5 minutes, group: between 500 nM and 1 μM (units in value)
Method: PAKT/PKB Cytoblot Assay Protocol with H209 Cells
H209 small cell lung carcinoma cells in log phase were plated at 50,000 cells/well in 96-well poly-lysine coated, clear bottom/black-sided plates (BD Cat # 354640) in 100 μl RPMI medium containing 0.1% (w/v) BSA, and incubated overnight at 37° C. in 5% CO2 incubator. The following day, compounds (10 mM stock solutions in DMSO) were added to the plates to generate final concentrations of 0.0, 0.01, 0.03, 0.1, 0.3, 1.0, 3.0 and 10 μM for IC50 determinations and incubated for 1 hour at 37° C. Cells were then left untreated or stimulated with Stem Cell Factor (SCF: Biosource Cat # PHC2116) at a final concentration of 25 ng/mL for 5 minutes at 37° C. in 5% CO2 incubator. The media was then removed using a vacuum manifold and the cells were washed once with Tris Buffered Saline (TBS).
Cells were then fixed by adding 200 μl of cold 3.7% (v/v) formaldehyde in TBS to each well for 15 minutes at 4° C. After removal of the formaldehyde, the cells were treated with the addition of 50 μl of methanol (at −20° C.) to each well for 5 minutes. After removal of the methanol, […] of 1% (w/v) BSA in TBS was added to each well to block non-specific antibody binding sites and the plate was incubated at room temperature for 30 minutes.
After removal of the blocking buffer, 50 μl of p-(S473) AKT rabbit polyclonal antibody (Cell Signaling Cat # 9277S) was added at a dilution of 1:250 in 0.1% (w/v) BSA in TBS, and the plate was incubated at room temperature for 1 hour. Plates were then washed 3 times with cold TBS containing 0.05% (v/v) Tween 20 (TBS-T) and […] of Horseradish peroxidase (HRP)-conjugated goat-anti-rabbit antibody (Amersham Cat # NA934V) at a dilution of 1:250 in TBS-T was added and the plate was incubated at room temperature for 1 h. After washing with ice-cold TBS-T four times, 100 μl of Enhanced Chemiluminescence (ECL) reagent (Amersham Cat# RPN2209) was added to each well and mixed on a mini-orbital shaker for 1 min. The plate was then read on a Perkin Elmer Victor 5 Multilabel Counter (#1420-0421).

Row | pIC50 | Compound
1 | 6.00 to 6.30 | O=C(Nc1ccc2c(c1)C(F)(F)OC(F)(F)O2)c1ccccc1NCc1ccnc(C2=NCCN2)c1 [Example 40, 2-({[2-(4,5-dihydro-1H-imidazol-2-yl)pyridin-4-yl]methyl}amino)-N-(2,2,4,4-tetrafluoro-4H-1,3-benzodioxin-6-yl)benzamide]
2 | 6.00 to 6.30 | NCC(O)CNc1cc(CNc2ccccc2C(=O)Nc2ccc3c(c2)OC(F)(F)O3)ccn1 (centres unmarked) [Example 142, 2-[({2-[(3-amino-2-hydroxypropyl)amino]pyridin-4-yl}methyl)amino]-N-(2,2-difluoro-1,3-benzodioxol-5-yl)benzamidebis(trifluoroacetate)(salt)]

Same assay, conditions: Homo sapiens, NCI-H209, compound 1 hour, SCF 25 ng/mL 5 minutes, group: between 1 and 3 μM

Row | pIC50 | Compound
3 | 5.52 to 6.00 | COc1cccc(NC(=O)Nc2cc(CNc3ccccc3C(=O)Nc3ccc4c(c3)OC(F)(F)O4)ccn2)c1 [Example 167, N-(2,2-difluoro-1,3-benzodioxol-5-yl)-2-({[2-({[(3-methoxyphenyl)amino]carbonyl}amino)pyridin-4-yl]methyl}amino)benzamide]
4 | 5.52 to 6.00 | O=C(Nc1ccc2c(c1)OC(F)(F)O2)c1cc(F)ccc1NCc1ccnc(C2=NCCN2)c1 [Example 41, N-(2,2-difluoro-1,3-benzodioxol-5-yl)-2-({[2-(4,5-dihydro-1H-imidazol-2-yl)pyridin-4-yl]methyl}amino)-5-fluorobenzamide]
5 | 5.52 to 6.00 | CN(C)CC(C)(C)CNC(=O)c1cc(CNc2ccccc2C(=O)Nc2ccc3c(c2)OC(F)(F)O3)ccn1 [Example 121, 4-{[(2-{[(2,2-difluoro-1,3-benzodioxol-5-yl)amino]carbonyl}phenyl)amino]methyl}-N-[3-(dimethylamino)-2,2-dimethylpropyl]pyridine-2-carboxamide]
6 | 5.52 to 6.00 | CCN(CCNC(=O)c1cc(CNc2ccccc2C(=O)Nc2ccc3c(c2)OC(F)(F)O3)ccn1)c1cccc(C)c1 [Example 106, 4-{[(2-{[(2,2-difluoro-1,3-benzodioxol-5-yl)amino]carbonyl}phenyl)amino]methyl}-N-{2-[ethyl(3-methylphenyl)amino]ethyl}pyridine-2-carboxamide]
7 | 5.52 to 6.00 | COc1ccc(NCc2ccncc2)c(C(=O)Nc2ccc3c(c2)OC(F)(F)C(F)(F)O3)c1 [Example 1, 5-methoxy-2-[(pyridin-4-ylmethyl)amino]-N-(2,2,3,3-tetrafluoro-2,3-dihydro-1,4-benzodioxin-6-yl)benzamide]
8 | 5.52 to 6.00 | N#Cc1cc(CNc2cc(F)c(F)cc2C(=O)Nc2ccc3c(c2)OC(F)(F)O3)ccn1 [Example 36, 2-{[(2-cyanopyridin-4-yl)methyl]amino}-N-(2,2-difluoro-1,3-benzodioxol-5-yl)-4,5-difluorobenzamide]
9 | 5.52 to 6.00 | Cc1cc(CNc2ccccc2C(=O)Nc2ccc3c(c2)OC(F)(F)C(F)(F)O3)nc(Cl)n1 [Example 26, 2-{[(2-chloro-6-methylpyrimidin-4-yl)methyl]amino}-N-(2,2,3,3-tetrafluoro-2,3-dihydro-1,4-benzodioxin-6-yl)benzamide]

Same assay, conditions: Homo sapiens, NCI-H209, compound 1 hour, SCF 25 ng/mL 5 minutes, group: less than 500 nM

Row | pIC50 | Compound
10 | > 6.30 | CC(C)(CO)CNc1cc(CNc2ccccc2C(=O)Nc2ccc3c(c2)OC(F)(F)O3)ccn1 [Example 141, N-(2,2-difluoro-1,3-benzodioxol-5-yl)-2-[({2-[(3-hydroxy-2,2-dimethylpropyl)amino]pyridin-4-yl}methyl)amino]benzamide trifluoroacetate(salt)]
11 | > 6.30 | O=C(Nc1ccc2c(c1)OC(F)(F)O2)c1ccccc1NCc1ccnc(NCCCO)c1 [Example 137, N-(2,2-difluoro-1,3-benzodioxol-5-yl)-2-[({2-[(3-hydroxypropyl)amino]pyridin-4-yl}methyl)amino]benzamide trifluoroacetate(salt)]
12 | > 6.30 | CC(=O)Nc1cc(CNc2ccccc2C(=O)Nc2ccc3c(c2)OC(F)(F)O3)ccn1 [Example 152, 2-({[2-(acetylamino)pyridin-4-yl]methyl}amino)-N-(2,2-difluoro-1,3-benzodioxol-5-yl)benzamide]
13 | > 6.30 | O=C(Nc1ccc2c(c1)OC(F)(F)O2)c1ccccc1NCc1ccnc(NCCc2c[nH]cn2)c1 [Example 147, N-(2,2-difluoro-1,3-benzodioxol-5-yl)-2-{[(2-{[2-(1H-imidazol-4-yl)ethyl]amino}pyridin-4-yl)methyl]amino}benzamidebis(trifluoroacetate)]
14 | > 6.30 | O=C(Nc1ccc2c(c1)OC(F)(F)O2)c1ccccc1NCc1ccnc(NCCCn2ccnc2)c1 [Example 146, N-(2,2-difluoro-1,3-benzodioxol-5-yl)-2-{[(2-{[3-(1H-imidazol-1-yl)propyl]amino}pyridin-4-yl)methyl]amino}benzamidebis(trifluoroacetate)]
15 | > 6.30 | Nc1cc(CNc2ccccc2C(=O)Nc2ccc3c(c2)OC(F)(F)O3)ccn1 [Example 153, 2-{[(2-aminopyridin-4-yl)methyl]amino}-N-(2,2-difluoro-1,3-benzodioxol-5-yl)benzamide]

Second part, the compound before the results:

Row | Compound | pIC50
16 | O=C(NCC(O)CO)c1cc(CNc2ccccc2C(=O)Nc2ccc3c(c2)OC(F)(F)O3)ccn1 (centres unmarked) [Example 79, 4-{[(2-{[(2,2-Difluoro-1,3-benzodioxol-5-yl)amino]carbonyl}phenyl)amino]methyl}-N-(2,3-dihydroxypropyl)pyridine-2-carboxamide] | > 6.30
17 | CCNC(=O)c1cc(CNc2ccccc2C(=O)Nc2ccc3c(c2)OC(F)(F)C(F)(F)O3)ccn1 [Example 44, N-ethyl-4-{[(2-{[(2,2,3,3-tetrafluoro-2,3-dihydro-1,4-benzodioxin-6-yl)amino]carbonyl}phenyl)amino]methyl}pyridine-2-carboxamide] | > 6.30
18 | O=C(Nc1ccc2c(c1)OC(F)(F)O2)c1ccccc1NCc1ccncc1 [Example 5, N-(2,2-difluoro-1,3-benzodioxol-5-yl)-2-[(pyridin-4-ylmethyl)amino]benzamide] | > 6.30
19 | CCCOCCNC(=O)c1cc(CNc2ccccc2C(=O)Nc2ccc3c(c2)OC(F)(F)O3)ccn1 [Example 114, 4-{[(2-{[(2,2-difluoro-1,3-benzodioxol-5-yl)amino]carbonyl}phenyl)amino]methyl}-N-(2-propoxyethyl)pyridine-2-carboxamide] | > 6.30
20 | CNC(=O)c1cc(CNc2ccccc2C(=O)Nc2ccc3c(c2)C(F)(F)OC(F)(F)O3)ccn1 [Example 4, N-methyl-4-{[(2-{[(2,2,4,4-tetrafluoro-4H-1,3-benzodioxin-6-yl)amino]carbonyl}phenyl)amino]methyl}pyridine-2-carboxamide] | > 6.30
21 | CC(C)OCCCNC(=O)c1cc(CNc2ccccc2C(=O)Nc2ccc3c(c2)OC(F)(F)O3)ccn1 [Example 111, 4-{[(2-{[(2,2-difluoro-1,3-benzodioxol-5-yl)amino]carbonyl}phenyl)amino]methyl}-N-(3-isopropoxypropyl)pyridine-2-carboxamide] | > 6.30
22 | O=C(NCc1ccncc1)c1cc(CNc2ccccc2C(=O)Nc2ccc3c(c2)OC(F)(F)O3)ccn1 [Example 104, 4-{[(2-{[(2,2-difluoro-1,3-benzodioxol-5-yl)amino]carbonyl}phenyl)amino]methyl}-N-(pyridin-4-ylmethyl)pyridine-2-carboxamide] | > 6.30
23 | O=C(Nc1ccc2c(c1)OC(F)(F)O2)c1cc(F)ccc1NCc1ccncc1 [Example 20, N-(2,2-difluoro-1,3-benzodioxol-5-yl)-5-fluoro-2-[(pyridin-4-ylmethyl)amino]benzamide] | > 6.30
